Patent publication US8704037B2, “Targeted cell death” (priority 2007, dated 2014)

Assays:
A2B5+ cells = test: Mixed cortical cultures infected with pLpPDGFR(iCP9)MG and exposed to CID; format: cell-based, rat; details: four hours after CID, loss of viable cell morphology
Source text: To confirm the cell specificity of the PDGFR-α promoter system, rat-derived primary cortical cultures were infected with pLpPDGFR(iCP9)MG virus. […] This provides data supporting the oligoprecursor-specificity of the PDGFR-α promoter system.

[1] = system: primary oligodendrocyte cultures; details: pΔmbpICP9/mEGFP virus; based on published data in other cell types (Straathof et al., 2005); cited from earlier work
[2] = system: cells infected with virus encoding iCP9; test: Cell Death Detection ELISA Plus after virus dilutions and CID; format: cell-based; details: various dilutions of iCP9 virus, 4 hours after CID
Procedure: FIG. 6 is a graph showing cells exposed to various dilutions of virus encoding the iCP9 gene and then CID was added to the culture media. 4 hours later, Apoptosis ELISA was performed. […] Thus apoptosis correlated with iCP9 gene expression. X-axis is virus dilution. Y-axis is ELISA absorption at 405 nm.
(§1) EGFP is also produced from the same viral plasmid and promoter. […] However, cells not transfected with virus (EGFP negative) persisted in culture. […] A Cell Death Detection ELISA Plus (Roche Inc) was also performed to determine the level of apoptosis in culture after cells infected with various dilutions of virus were exposed to CID.

[3] = system: oligodendrocytes (MBP staining cells); test: pLpMBP(iCP9)MG injected into corpus callosum, then CID; format: in vivo, rat; details: after CID
[4] = system: primary oligodendrocyte cultures; test: CID-induced cell death in primary oligodendrocyte cultures transduced with iCP9 virus; format: cell-based, rat; details: CID 10 nM; iCP9-expressing primary oligodendrocyte cultures; fluorescent microscope and Methylene Blue viability staining
Procedure: To induce timely cell death. Collected virus was used to transduce primary oligodendrocyte cultures that have been established. Cells were cultured and evaluated using fluorescent microscopy for the expression of GFP. The extent of GFP positive cells correlated with the viral infection efficacy. Cell protein isolation was conducted and protein isolates were subjected to Western blot transfer to detect stable expression of the iCP9 protein. The resultant membrane was probed with anti-caspase 9 antibody (R&D Systems Inc. #AF8301). Once the stable expression of iCP9 was confirmed at the protein level with Western blot techniques, the CID was applied to these cells in culture at a 10 nM concentration. […] Cell death was detected by viewing cultures under the fluorescent microscope and by using Methylene Blue (Sigma) viability staining of cells in culture after exposure to the CID. All experiments were run in parallel using the astrocyte-derived U87 cell line as a negative control.
Establish primary oligodendrocyte cultures. […] The status of cellular differentiation was monitored by noting the change in cellular morphology in culture. […]
Once this system and differentiation pattern was confirmed, A2B5^+ primary cell cultures were cultured in pΔmbpICP9/mEGFP viral supernatant for 8 hours. […] Infected cells expressed EGFP and were readily identified using the proper fluorescent filter system. […]

293T cells = test: CID-induced apoptosis in 293T cells transfected with iCP9 lentivirus or control virus; format: cell-based
Procedure: as §1

[5] = system: infected region of the CNS; test: pΔmbpICP9/mEGFP virus applied to the CNS, then intraperitoneal CID; format: in vivo, rat; details: CID via intraperitoneal injection after virus injection
Procedure: The virus described above, pΔmbpICP9/mEGFP, which contains the inducible caspase 9 sequence was applied to the CNS of adult rats to create an in vivo model of CNS demyelination. Administration of the viral vector allowed effective transfer of genetic information in a variable area of parenchyma based on the rate of administration (convective distribution) and viral titer. […] First, adult Fischer rats were anaesthetized by intraperitoneal injection of ketamine hydrochloride (80 mg/kg) and xylazine ([…]) and placed in a stereotactic frame. A midline scalp incision is made. Access to brain parenchyma was accomplished by placement of a right-sided burr hole through the skull, at various predetermined coordinates depending on the desired location of the lesion. […] The volume of viral vector (e.g., lentivirus) delivered depends upon the infection efficacy as determined herein and the target area size. After injection, the needle is left in place for five minutes and then slowly withdrawn over the next four minutes. The skin was closed with sutures.
For virus administration to the spinal cord an incision was made in the thoracic spine followed by a lamenectomy to expose the spinal cord. A No. 32S-gauge needle was passed into the posterior column at predetermined coordinates.

GFAP+ cells (astrocytes) [6] = test: Pan purified GFAP+ cultures infected with pLpGFAP(iCP9)MG and exposed to CID; format: cell-based; details: 4 hours after CID
Source text: To test the specificity of the GFAP promoter system, GFAP+ pan purified cultures (cultures of purified astrocytes) were transfected with pLpGFAP(iCP9)MG and exposed to CID.

[7] = system: MBP+ cells (oligodendrocytes); test: Mixed cortical cultures infected with pLpMBP(iCP9)MG and exposed to CID; format: cell-based, rat
Procedure: High density mixed cortical cultures were established after isolation of cerebral cortices from 3 Fischer rats as previously described. Cerebral cortices were removed and place in ice-cold Hanks' balanced salt solution, centrifuged and digested with trypsin at 37° for 10 minutes. Tissue was centrifuged and resuspended in minimal essential medium with Earle's salt (Invitrogen) containing heat-inactivated fetal bovine serum and horse serum. Cell suspension was passed through cell strainers and plated. After three hours the medium is changed to Neurobasal medium supplemented with B27 MinusAO (Invitrogen). Cultures were maintained for seven days and then immunohistochemical staining was performed to verify the composition of the cultures.
The mixed primary cortical cultures (consisting of all CNS cell types) were infected with pLpMBP(iCP9)MG and exposed to CID and then analyzed for cell death of oligodendrocytes (MBP+ cells). The MBP promoter was designed to induce cell death only in MBP+ cells, the majority of which are mature oligodendrocytes.

GFAP+ cells (astrocytes) [8] = test: pLpGFAP(iCP9)MG injected into corpus callosum, then CID into ipsilateral ventricle; format: in vivo, rat; details: 24 hours after CID
Procedure: The system was tested in vivo to ensure that cell specific apoptosis could be induced and the timing of cell ablation controlled as it was in vitro. To this end, virus was injected into the corpus callosum of adult Fischer rats and then three weeks later CID was administered into the ipsilateral ventricle. Rats were sacrificed 24-hours thereafter, brains removed in whole, fixed and cyrosectioned for analysis. […] The TUNEL (TdT-mediated dUTP-X nick end-labeling) system adds a tag on to DNA that has been fragmented during the apoptosis cascade allowing for labeling using standard immunohistochemistry. Thin sections derived from control rats receiving glycerol rather than CID were TUNEL negative. Consecutive thin sections were then stained with anti-GFAP antibody to identify astrocytes. […] This confirmed that in vivo the iCP9 system induces apoptosis only after CID administration and effectively ablates GFAP+ astrocytes.

CC[C@H](C(=O)N1CCCC[C@H]1C(=O)O[C@H](CCc1ccc(OC)c(OC)c1)c1cccc(OCC(=O)NCC(CNC(=O)COc2cccc([C@@H](CCc3ccc(OC)c(OC)c3)OC(=O)[C@@H]3CCCCN3C(=O)[C@@H](CC)c3cc(OC)c(OC)c(OC)c3)c2)CN(C)C)c1)c1cc(OC)c(OC)c(OC)c1 [CID]
apoptosis of A2B5+ cells (A2B5+ cells): identified undergoing apoptosis
time to cell death of oligodendrocytes after CID [1]: 4 to 6 h
apoptosis level (ELISA absorption at 405 nm) [2]: Apoptosis levels decreased with dilution of virus
anti-MBP staining at site of infection ([3]; glycerol controls normal): failed to stain with anti-MBP antibody at the site of infection
TUNEL positive cells ([3]; not in glycerol controls): TUNEL positive cells were identified at the site of infection
cell death of infected cells [4]: induced the cellular death of infected cells
apoptosis of EGFP-positive cells after CID (293T cells; 293T cells, pLpCMV(iCP9)MG virus): rapidly underwent apoptosis
EGFP-positive cells after CID, control virus (293T cells; cultures transfected with control virus pLpCMVXMG): EGFP-positive cells persisted
apoptosis of infected CNS region [5]: resulting in apoptosis of the infected region of the CNS
EGFP positive cells after CID (GFAP+ cells (astrocytes) [6]): a decrease in EGFP positive cells
morphology of A2B5/EGFP, GFAP/EGFP and O4/EGFP positive cells ([7]; non-target cell types): appeared morphologically normal before and after CID exposure
morphology of MBP-positive, EGFP-positive cells after CID ([7]; relative to cells not exposed to CID): appeared disrupted
anti-GFAP staining at area of viral infection (GFAP+ cells (astrocytes) [8]): GFAP+ cells were not detected at the area of viral infection
TUNEL staining (GFAP+ cells (astrocytes) [8]; glycerol controls TUNEL negative): TUNEL positive staining at the site of virus infection
